Measured values taken from the NIST ThermoML archive (doi:10.1021/acs.jced.7b01073).
Numbers after ± are expanded uncertainties.

Conditions: Liquid, Closed cell (Static) method

| Structure (SMILES) | vapor or sublimation pressure (283.15 K) | vapor or sublimation pressure (293.15 K) | vapor or sublimation pressure (303.15 K) | vapor or sublimation pressure (313.15 K) | vapor or sublimation pressure (323.15 K) |
| --- | --- | --- | --- | --- | --- |
| C=C(F)C(F)(F)F [2,3,3,3-tetrafluoro-1-propene] | 437.9 ± 7 kPa | 591.5 ± 7.1 kPa | 782.9 ± 7.1 kPa | 1018.2 ± 7.2 kPa | 1302.4 ± 7.2 kPa |
| CCCC [butane] | 148.1 ± 1 kPa | 207.2 ± 1 kPa | 283.4 ± 1.1 kPa | 378.6 ± 1.1 kPa | 496.5 ± 1.2 kPa |
